Measurements reported in ChEMBL document CHEMBL1201862, “PubChem BioAssay data set” (2004).
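Cultured in 96-well plates, cells were exposed to test compound for 48 hours across five concentrations. GI50: concentration for 50% inhibition of growth.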 The source made the active and inactive calls. Cut-off read from the data, not from the text of the source: active = GI50 up to about 1.1 µM and inactive = higher.

Legend:
Test in all cases: NCI-60 cell line screen, 48 h
[1] = tested on: 786-0
[2] = tested on: A498
[3] = tested on: A549
[4] = tested on: ACHN
[5] = tested on: BT-549
[6] = tested on: CAKI-1
[7] = tested on: CCRF-CEM
[8] = tested on: COLO 205
[9] = tested on: DU-145
[10] = tested on: EKVX
[11] = tested on: HCC 2998
[12] = tested on: HCT-116
[13] = tested on: HCT-15
[14] = tested on: HL-60
[15] = tested on: HOP-62
[16] = tested on: HOP-92
[17] = tested on: HT-29
[18] = tested on: Hs-578T
[19] = tested on: IGROV-1
[20] = tested on: K562
[21] = tested on: KM12
[22] = tested on: LOX IMVI
[23] = tested on: M14
[24] = tested on: MCF7
[25] = tested on: MDA-MB-231
[26] = tested on: MDA-MB-435
[27] = tested on: MDA-N
[28] = tested on: MOLT-4
[29] = tested on: Malme-3M
[30] = tested on: NCI-H226
[31] = tested on: NCI-H23
[32] = tested on: NCI-H460
[33] = tested on: NCI-H522
[34] = tested on: NCI/ADR-RES
[35] = tested on: OVCAR-3
[36] = tested on: OVCAR-4
[37] = tested on: OVCAR-5
[38] = tested on: OVCAR-8
[39] = tested on: PC-3
[40] = tested on: RPMI-8226
[41] = tested on: RXF 393
[42] = tested on: SF-268
[43] = tested on: SF-295
[44] = tested on: SF-539
[45] = tested on: SK-MEL-28
[46] = tested on: SK-MEL-2
[47] = tested on: SK-MEL-5
[48] = tested on: SK-OV-3
[49] = tested on: SN12C
[50] = tested on: SNB-19
[51] = tested on: SNB-75
[52] = tested on: SW-620
[53] = tested on: T47D
[54] = tested on: TK-10
[55] = tested on: U-251
[56] = tested on: UACC-257
[57] = tested on: UACC-62
[58] = tested on: UO-31

C=CC(C)(O)CCC1C(=C)C(O)CC2C(C)(C)CCCC12C (stereo unspecified)
GI50 [1]: 18.6 µM (inactive)
GI50 [2]: 18.3 µM (inactive)
GI50 [3]: 22.1 µM (inactive)
GI50 [4]: 26 µM (inactive)
GI50 [5]: 18 µM (inactive)
GI50 [6]: 23.5 µM (inactive)
GI50 [7]: 18.5 µM (inactive)
GI50 [8]: 16 µM (inactive)
GI50 [9]: 18.2 µM (inactive)
GI50 [10]: 19.1 µM (inactive)
GI50 [11]: 18.6 µM (inactive)
GI50 [12]: 17.9 µM (inactive)
GI50 [13]: 17.6 µM
GI50 [14]: 14 µM (inactive)
GI50 [15]: 20.6 µM (inactive)
GI50 [16]: 17.3 µM (inactive)
GI50 [17]: 17.8 µM (inactive)
GI50 [18]: 22.6 µM (inactive)
GI50 [19]: 24.3 µM (inactive)
GI50 [20]: 14.4 µM (inactive)
GI50 [21]: 21.1 µM (inactive)
GI50 [22]: 19.2 µM (inactive)
GI50 [23]: 16.3 µM (inactive)
GI50 [24]: 23.2 µM (inactive)
GI50 [25]: 17.7 µM (inactive)
GI50 [26]: 18.6 µM (inactive)
GI50 [27]: 20.4 µM (inactive)
GI50 [28]: 14.2 µM (inactive)
GI50 [29]: 18.2 µM (inactive)
GI50 [30]: 15.6 µM (inactive)
GI50 [31]: 18.7 µM (inactive)
GI50 [32]: 16.9 µM (inactive)
GI50 [33]: 17.6 µM (inactive)
GI50 [34]: 18.5 µM (inactive)
GI50 [35]: 18.9 µM (inactive)
GI50 [36]: 20.5 µM (inactive)
GI50 [37]: 20 µM (inactive)
GI50 [38]: 26.1 µM (inactive)
GI50 [39]: 15.3 µM (inactive)
GI50 [40]: 20 µM (inactive)
GI50 [41]: 14.3 µM (inactive)
GI50 [42]: 19.9 µM (inactive)
GI50 [43]: 21.1 µM (inactive)
GI50 [44]: 17.9 µM (inactive)
GI50 [45]: 18.7 µM (inactive)
GI50 [46]: 16.3 µM (inactive)
GI50 [47]: 16 µM (inactive)
GI50 [48]: 33.3 µM (inactive)
GI50 [49]: 18.9 µM (inactive)
GI50 [50]: 18.1 µM (inactive)
GI50 [51]: 48.3 µM (inactive)
GI50 [52]: 20.7 µM (inactive)
GI50 [53]: 23.5 µM (inactive)
GI50 [54]: 20 µM (inactive)
GI50 [55]: 15.5 µM (inactive)
GI50 [56]: 19 µM (inactive)
GI50 [57]: 16 µM (inactive)
GI50 [58]: 15.2 µM (inactive)

NCS(=O)(=O)O
GI50 [1]: > 100 µM (inactive)
GI50 [2]: > 100 µM (inactive)
GI50 [3]: > 100 µM (inactive)
GI50 [4]: > 100 µM (inactive)
GI50 [5]: > 100 µM (inactive)
GI50 [6]: > 100 µM (inactive)
GI50 [7]: > 100 µM (inactive)
GI50 [8]: > 100 µM (inactive)
GI50 [9]: > 100 µM (inactive)
GI50 [10]: > 100 µM (inactive)
GI50 [11]: > 100 µM (inactive)
GI50 [12]: > 100 µM (inactive)
GI50 [13]: > 100 µM
GI50 [14]: > 100 µM (inactive)
GI50 [15]: > 100 µM (inactive)
GI50 [16]: > 100 µM (inactive)
GI50 [17]: > 100 µM (inactive)
GI50 [18]: > 100 µM (inactive)
GI50 [19]: > 100 µM (inactive)
GI50 [20]: > 100 µM (inactive)
GI50 [21]: > 100 µM (inactive)
GI50 [22]: > 100 µM (inactive)
GI50 [23]: > 100 µM (inactive)
GI50 [24]: > 100 µM (inactive)
GI50 [25]: > 100 µM (inactive)
GI50 [26]: > 100 µM (inactive)
GI50 [27]: > 100 µM (inactive)
GI50 [28]: > 100 µM (inactive)
GI50 [29]: > 100 µM (inactive)
GI50 [30]: > 100 µM (inactive)
GI50 [31]: > 100 µM (inactive)
GI50 [32]: 35.2 µM (inactive)
GI50 [33]: > 100 µM (inactive)
GI50 [34]: > 100 µM (inactive)
GI50 [35]: > 100 µM (inactive)
GI50 [36]: 83.4 µM (inactive)
GI50 [37]: > 100 µM (inactive)
GI50 [38]: > 100 µM (inactive)
GI50 [39]: > 100 µM (inactive)
GI50 [40]: > 100 µM (inactive)
GI50 [41]: > 100 µM (inactive)
GI50 [42]: > 100 µM (inactive)
GI50 [43]: > 100 µM (inactive)
GI50 [44]: 0.0361 µM (active)
GI50 [45]: > 100 µM (inactive)
GI50 [46]: > 100 µM (inactive)
GI50 [47]: > 100 µM (inactive)
GI50 [48]: > 100 µM (inactive)
GI50 [49]: > 100 µM (inactive)
GI50 [50]: > 100 µM (inactive)
GI50 [51]: > 100 µM (inactive)
GI50 [52]: > 100 µM (inactive)
GI50 [53]: > 100 µM (inactive)
GI50 [54]: > 100 µM (inactive)
GI50 [55]: > 100 µM (inactive)
GI50 [56]: > 100 µM (inactive)
GI50 [57]: > 100 µM (inactive)
GI50 [58]: > 100 µM (inactive)
